This note sets out measurements from article PMC11429203, “Developing New Peptides and Peptide–Drug Conjugates for Targeting the FGFR2 Receptor-Expressing Tumor Cells and 3D Spheroids” (Biomimetics, 2024).

Where a SMILES comes first, the peptide text is derived from it. Where no end group is shown, it is not given here. The star is where a group is joined. Doxorubicin(3'-N) = COc1cccc2c1C(=O)c1c(O)c3c(c(O)c1C2=O)C[C@@](O)(C(=O)CO)C[C@@H]3O[C@H]1C[C@H](N*)[C@H](O)[C@H](C)O1

Assay type in all cases: cell-based, human
Experiment [1] concerns co-cultured spheroids of KATO (III) cells and colon tumor-associated fibroblasts (CAFs). As to the kind of experiment: Permeation into 3D co-cultured spheroids (fluorescence imaging). To be noted: for Permeation of DOX conjugates and neat DOX into spheroids / Permeation of carboxyfluorescein-tagged peptides into spheroids: 1 µM, spheroids grown 6 days at 2000 cells/well, fluorescence imaging; for Permeation of DOX conjugates and neat DOX into spheroids: inherent DOX fluorescence; for Penetration depth from Image J plot profiles of fluorescence intensity, periphery to center: semi-quantitative mean normalized intensity, mean from 3 spheroids; for Permeation of carboxyfluorescein-tagged peptides into spheroids: 24 h incubation. How it is done: To mimic the tumor microenvironment, 3D cultures of tumor cells (spheroids) were grown. For growing spheroids, co-cultures of human colon-associated tumor fibroblasts and KATO III gastric cancer cells were grown in a 1:3 ratio in a growth media containing IMDM and fibroblast growth medium. Spheroids grown at 2000 cells/well and 4000 cells/well were co-cultured in Nunclon Sphera nonadherent 12-well plates and allowed to grow over a period of two weeks. The growth of the spheroids was monitored using optical microscopy. Media was cautiously removed every two days, and replaced with new medium.
The co-cultured spheroids were grown at a density of 2000 cells/well for six days prior to treatment with the peptides or the peptide–drug conjugates. To visualize the internalization of the peptides, those were first tagged with fluorescein to allow for visualization through fluorescence microscopy. For tagging, each peptide was tagged with NHS-Fluorescein (5/6-carboxyfluorescein succinimidyl ester to allow for binding with the amine group of the peptides). To each peptide solution (10 µM), 1 µM of the dye solution was added and allowed to shake in the dark for 24 h. The solutions were then centrifuged and washed with deionized water twice to remove any unbound dye. Then, peptide solutions were vortexed and allowed to incubate with the spheroids. For the drug conjugates, no tagging was done, due to inherent fluorescence of DOX. In general, 1 µM solutions of the peptides or drug conjugates were used. The spheroids were then visualized using fluorescent microscopy using an inverted Amscope IN480TC-20MB13 microscope at various magnifications.
To visualize the internalization of the peptides and the peptide–drug conjugates in the spheroids, we conducted fluorescence microscopy using an Amscope Inverted Phase-Contrast Fluorescence Microscope. Samples were imaged at various magnifications.
It is well known that constrained interstitial penetration may impede the diffusion of drugs into tumors, thus affecting efficacy. […] Their entry within the spheroids was examined through fluorescence imaging. In the case of the conjugates, because DOX is inherently fluorescent, fluorescence images were taken without tagging. […] The plot profiles obtained from the edge of the spheroid to the center were measured. On average, five measurements were carried out for images of each of the spheroids that were incubated with DOX-conjugated peptides, as well as with neat DOX. The fluoresence intensity from the periphery to the center of the spheroid was measured.

Experiment [2] relates to KATO III gastric cancer cells. In words: WST-8 cytotoxicity assay, tumor cells. To be noted: 24 h, WST-8, highest concentration (5 µM), triplicate. Here is the method: Three cell lines were cultured in 50 mL sterile falcon tissue culture flasks. These included the FGFR2-expressing KATO III gastric cancer cell line (ATCC HTB-103), human colon cancer-associated tumor fibroblasts (HC-6231, Cell Biologics), and primary lung fibroblasts (normal) as control (ATCC-PCS-201-013). Both lines of fibroblasts were grown in Fibroblast Growth Media, and KATO III cells were cultured in Iscove’s Modified Dulbecco’s Medium (IMDM). All growth media were supplement with 10% fetal bovine serum (ATCC), 3 mL of 1X antibiotic-antimycotic mixture per 500 mL medium (GIBCO), 10 units/mL penicillin and 10 μg/mL streptomycin (GIBCO). Each cell line was incubated at 37 °C in a 5% CO2 incubator. Cells were grown to confluence, and the medium was changed every 2 to 3 days. Confluent cells were split twice a week.
Cells were plated in 96-well plates at a density of 1 × 10^4 cells/well. WST-8 assays (Cayman Chemicals, Ann Arbor, MI, USA) were conducted in triplicate for non-cancer primary fibroblasts, as well as for KATO III cells, following manufacturer instructions from the assay kit. […] Following incubation with WST-8 reagent according to manufacturer instructions, absorbance at 450 nm was measured using a Biotek microplate reader. The absorbance of DOX in media was subtracted.
To quantify the effects of the cytotoxicity of the peptides and the DOX conjugates, we conducted WST-8 assays. […]

For another experiment, the system named is KATO (III) tumor cells. As to the kind of experiment: Phase contrast imaging of cell morphology after treatment. As to conditions: 1 µM, 24 h, phase contrast microscopy. Here is the method:
Cells were plated in 96-well plates at a density of 1 × 10^4 cells/well. WST-8 assays (Cayman Chemicals, Ann Arbor, MI, USA) were conducted in triplicate for non-cancer primary fibroblasts, as well as for KATO III cells, following manufacturer instructions from the assay kit. In general, varying concentrations of the peptides and the DOX conjugates were utilized. The concentrations used were 0.1 µM, 0.5 µM, 1 µM, 2 µM and 5 µM. Neat DOX (1 µM, 2 µM) was also compared. The peptides or drug conjugates or DOX were allowed to incubate with cells for 24 h, and imaged using a phase contrast optical microscope before analysis. Following incubation with WST-8 reagent according to manufacturer instructions, absorbance at 450 nm was measured using a Biotek microplate reader. The absorbance of DOX in media was subtracted.
To investigate the impact of the peptides and the peptide–DOX conjugates on KATO (III) tumor cells, we conducted cytotoxicity studies.

In the case of `COc1cccc2c1C(=O)c1c(O)c3c(c(O)c1C2=O)C[C@@](O)(C(=O)CO)C[C@@H]3O[C@H]1C[C@H](N)[C@H](O)[C@H](C)O1` [DOX, Doxorubicin, reference compound], the “Permeation of DOX conjugates and neat DOX into spheroids” value in experiment [1] is “marginal internalization”.
For “ACSAGLPHVLTPEAGATGASCA-(DOX)2 [Trimer-pep-(DOX)2]”, in experiment [1], the “Permeation of DOX conjugates and neat DOX into spheroids” value is “relatively higher penetration”; the “Penetration depth from Image J plot profiles of fluorescence intensity, periphery to center” value is given as “penetrate deeper”.
Take `COc1cccc2c1C(=O)c1c(O)c3c(c(O)c1C2=O)C[C@@](O)(C(=O)CO)C[C@@H]3O[C@H]1C[C@H](NC(=O)CNC(=O)[C@H](C)NC(=O)[C@H](CO)NC(=O)[C@H](CS)NC(=O)[C@H](C)N)[C@H](O)[C@H](C)O1` [A-pep-DOX] (H-ACSAG-{Doxorubicin(3'-N)}; N-terminus assumed): in experiment [1], the “Permeation of DOX conjugates and neat DOX into spheroids” value is given as “higher fluorescence”; the “Penetration depth from Image J plot profiles of fluorescence intensity, periphery to center” value is recorded as “penetrate deeper”. In experiment [2], this molecule came in with a Cell viability of 9%. Also, in the experiment on KATO (III) tumor cells, the “Cell morphology after treatment” value is “appeared to bleb and burst”.
Consider `COc1cccc2c1C(=O)c1c(O)c3c(c(O)c1C2=O)C[C@@](O)(C(=O)CO)C[C@@H]3O[C@H]1C[C@H](NC(=O)CC[C@H](NC(=O)[C@@H]2CCCN2C(=O)[C@@H](NC(=O)[C@H](CC(C)C)NC(=O)[C@@H](NC(=O)[C@H](Cc2c[nH]cn2)NC(=O)[C@@H]2CCCN2C(=O)[C@@H](N)CC(C)C)C(C)C)[C@@H](C)O)C(=O)N[C@@H](C)C(=O)NCC(=O)N[C@@H](C)C(=O)N[C@H](C(=O)N[C@H]2C[C@H](O[C@H]3C[C@](O)(C(=O)CO)Cc4c(O)c5c(c(O)c43)C(=O)c3c(OC)cccc3C5=O)O[C@@H](C)[C@H]2O)[C@@H](C)O)[C@H](O)[C@H](C)O1` [L-pep-(DOX)2], for which the “Permeation of DOX conjugates and neat DOX into spheroids” value in experiment [1] is given as “comparatively lower intensity of fluorescence”. This molecule also returned a Cell viability in experiment [2] of 7%.
With `CC(C)C[C@H](NC(=O)[C@@H](NC(=O)[C@H](Cc1c[nH]cn1)NC(=O)[C@@H]1CCCN1C(=O)[C@@H](N)CC(C)C)C(C)C)C(=O)N[C@H](C(=O)N1CCC[C@H]1C(=O)N[C@@H](CCC(=O)O)C(=O)N[C@@H](C)C(=O)NCC(=O)N[C@@H](C)C(=O)N[C@H](C(=O)O)[C@@H](C)O)[C@@H](C)O` [L-pep], in experiment [1], the “Permeation of carboxyfluorescein-tagged peptides into spheroids” value is listed as “relatively higher fluorescence was observed in the outlayers compared to the core”. For the same molecule, the “Cell morphology after treatment” value in the experiment on KATO (III) tumor cells is recorded as “appeared spherical”.
For ACSAG [A-pep], the “Permeation of carboxyfluorescein-tagged peptides into spheroids” value in experiment [1] is listed as “higher internalization”. Moreover, the “Cell morphology after treatment” value with KATO (III) tumor cells is “loss of morphology and adhesive properties”.
